{"source": "patent US20210379199A1", "about": "“COPPER NANOCLUSTERS, COMPOSITION COMPRISING THE SAME, AND TREATMENT OF NEURODEGENERATIVE DISEASES” (Shenzhen Profound-View Pharma Tech Co., Ltd, priority 2019, published 2021)", "key": {"α-syn": {"biological_target": "T1, α-syn (Homo sapiens, UniProt P37840)", "T1 construct": "purchased Bachem Corp", "test": "α-syn aggregation kinetics, ThT fluorescent labeling", "format": "biochemical", "conditions": "35 μM α-syn, 5 ppm CuNCs or ligand alone, 37° C., 70 hours", "description": "CuNCs modified with different ligands were prepared according to literatures. Thioflavin T (abbreviation: ThT) is a highly sensitive fluorescent marker used to identify the presence of amyloid. […] When ThT encounters amyloid polypeptide or protein with a fiber structure, it will immediately adjacent to the amyloid polypeptides or proteins and its fluorescence intensity will increase exponentially. Therefore, ThT is widely used as a maker to monitor amyloidosis of peptides or proteins. This embodiment adopts ThT fluorescent labeling method to monitor the kinetics process of fibrosis aggregation of α-syn in the presence of CuNCs. The specific experiment method is as follows.\nPretreatment of α-syn monomers: Dissolve freeze-dried α-syn powder (Bachem Corp.) in HFIP to obtain a 1 g/L α-syn solution. […]\nSample preparation and detection: Add ligand modified CuNCs to α-syn PBS solution to reach final concentrations of 5 ppm and 35 μM for CuNCs and α-syn, respectively. Incubate the solution continuously in a 96-well plate at 37° C., monitor the fluorescence intensity by microplate reader every 10 minutes, and characterize the kinetics process of α-syn aggregation through the change of fluorescence intensity of ThT. […]"}, "RGC-5 cells": {"test_system": "RGC-5 cells", "test": "H2O2-induced glaucoma cell (RGC-5) model, CCK-8 cell viability", "format": "cell-based", "conditions": "20 ppm of GSH and 100 μM of H2O2, 24 hours", "description": "RGC-5 cells in logarithmic growth phase were diluted with complete medium (DMEM medium+10% FBS+1% penicillin-streptomycin) into a cell suspension with a density of 5×10^4/mL, inoculated with 100 μL per well in 96-well plates. The cells were cultured at 37° C. in a 5% CO2 incubator. After the cells were attached, the original culture solution was discarded, and 50 μL of different concentrations of CuNCs prepared from maintenance medium (DMEM medium+2% FBS+1% penicillin-streptomycin) were added to different wells. The final concentrations were 0.5, 5 and 20 ppm respectively (i.e. groups 5, 6, 7 respectively in FIG. 19). After pretreatment for 2 h, about 50 μL of H2O2 (final concentration of 105 μM) was added. The cells were incubated for 24 h, and 10% CCK-8 was added to each well for 4 h. The absorbance values of the respective wells were measured at the wavelength of 450 nm to evaluate the protection effect of CuNCs against H2O2-induced damages. In the above experiments, provided were a blank control group in which cells were not treated, a model control group in which cells were treated with 105 μM H2O2, a CuNCs control group in which 100 ppm of CuNCs were added but no H2O2 was added, and a ligand control group in which 20 ppm ligand and 105 μM H2O2 were added (i.e. groups 1, 2, 3, 4 respectively in FIG. 19)."}, "SH-sy5y cells": {"test_system": "SH-sy5y cells", "test": "MPP+ induced PD cells (SH-sy5y) model, CCK-8 cell viability", "conditions": "1 mM MPP+, ligand 20 ppm, 24 h", "quoted_text": "1) Take SH-sy5y cells in the logarithmic growth phase. Dilute them with complete medium to form a cell suspension with a cell density of 5×10^4/mL. Plate 200 μl of the cell suspension into each well of a 96-well plate and cultivate in an environment of 37° C. and 5% CO2 in an incubator. The sample is added after the cells are attached.\n2) Add 100 μL of ligand-modified CuNCs samples or ligand-modified copper nanoparticles samples with different particle sizes, which are prepared using maintenance medium to make the final concentration being 0.1 ppm, 1 ppm, 5 ppm, 10 ppm and 20 ppm, respectively. After 2 hours of pretreatment with ligand-modified CuNCs, the different groups of cells were added with MPP^+ (final concentration is 1 mM). […] Then the cells were cultured at 37° C. for 24 h. After centrifugation to remove the culture medium, 100 μL maintenance medium containing 10% CCK-8 were added to each well, and then incubate for 4 h. The absorbance of each well was then measured at 450 nm. The absorbance could reflect the pre-protective and curative effects of ligand-modified CuNCs against MPP^+ lesion."}}}
{"smiles": "N[C@@H](CCC(=O)N[C@@H](CS)C(=O)NCC(=O)O)C(=O)O", "note": "[GSH, L-glutathione]", "values": [{"measurement": "α-syn aggregation and fibrosis (ThT fluorescence intensity)", "setting": "α-syn", "result": "does not have an obvious effect"}, {"measurement": "cell viability, ligand control group", "setting": "RGC-5 cells", "result": "56.5±5.9", "unit": "%"}, {"measurement": "cell viability, ligand control group", "setting": "SH-sy5y cells", "result": "56.9±3.4", "unit": "%"}]}
